Three compounds from ChEMBL document CHEMBL1201862, “PubChem BioAssay data set” (2004) can be followed below.

Active and inactive are the calls of the source. Some results are limits rather than exact numbers.

Experiment [1] concerns the target DNA dC->dU-editing enzyme APOBEC-3G (Homo sapiens, UniProt Q9HC16). As to the kind of experiment: inhibition of APOBEC3G ssDNA deamination – biochemical, fluorescence, single-stranded DNA substrate, SAR follow-up (AID 602136). Type of experiment: functional. The note with it: read-out: IC50_Mean.
Experiment [2] addresses DNA dC->dU-editing enzyme APOBEC-3A (Homo sapiens, UniProt P31941). Nature of the experiment: SAR analysis of small molecule inhibitors of APOBEC3A DNA Deaminase via a fluorescence-based single-stranded DNA deaminase assay. Type of experiment: functional. Conditions: read-out: IC50_Mean.
Experiment [3] in a line: THP-1 cell cytotoxicity, dose response, cytotoxicity control, set 3 (AID 504852). Type of experiment: functional. Conditions: Mycobacterium tuberculosis.
A short description of experiment [4]: Vero cell cytotoxicity, dose response, cytotoxicity control for M. tuberculosis growth inhibitor project, Vero cells, purified and synthesized compounds, set 4 (AID 504854). Type of experiment: functional. The note with it: Mycobacterium tuberculosis.
Experiment [5] is described as follows: NIH-3T3 fibroblast cytotoxicity, dose response, cytotoxicity control, cell-based, fluorescence, Alamar Blue, secondary assay (AID 2327).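 Note: NIH-3T3 mouse fibroblasts cultured with fluconazole at 8 µg/mL.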 Type of experiment: functional. On the technique in general: Alamar Blue is a resazurin reagent that responds to reducing activity.
Experiment [6] has as its target Serine/threonine-protein phosphatase PP1-alpha catalytic subunit (Homo sapiens, UniProt P62136). As to the kind of experiment: inhibition of protein phosphatase 1 activity – biochemical, fluorescence, dose response (AID 2403).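 Note: phosphatase turnover of OMFP into fluorescent 3-O-methylfluorescein.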
Experiment [7] can be described thus: fluconazole-exposed Candida albicans growth modulators – fluorescence, retest, confirmation (AID 2467). Type of experiment: functional, cell-based.
The nature of experiment [8]: Trypanosoma cruzi growth suppression in host cells – NIH3T3 host cells, beta-gal luminescence, confirmation (AID 2044).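 Note: intracellular parasites grown in NIH/3T3 mouse fibroblasts as host cells; luminescent beta-galactosidase reporter signal from transgenic T. cruzi replicating inside host cells; inhibitors lower the luminescence signal.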 Type of experiment: functional, cell-based.
For experiment [9], the target named is Serine/threonine-protein phosphatase (Homo sapiens, UniProt Q9BPW0). As to the kind of experiment: Counterscreen for inhibitors of PP1: fluorescence-based biochemical high throughput dose response assay to identify inhibitors of Protein Phosphatase 5 (PP5). [Related pubchem assays: 2034 (Summary (PP5 inhibitors)), 1987 (PP5 inhibitors in singlate), 2235 (PP1 inhibitors in singlate)]. In general terms: A counterscreen serves to expose hits that act by an unwanted route or on another target.
Serine/threonine-protein phosphatase, sequence (Q9BPW0 whole entry): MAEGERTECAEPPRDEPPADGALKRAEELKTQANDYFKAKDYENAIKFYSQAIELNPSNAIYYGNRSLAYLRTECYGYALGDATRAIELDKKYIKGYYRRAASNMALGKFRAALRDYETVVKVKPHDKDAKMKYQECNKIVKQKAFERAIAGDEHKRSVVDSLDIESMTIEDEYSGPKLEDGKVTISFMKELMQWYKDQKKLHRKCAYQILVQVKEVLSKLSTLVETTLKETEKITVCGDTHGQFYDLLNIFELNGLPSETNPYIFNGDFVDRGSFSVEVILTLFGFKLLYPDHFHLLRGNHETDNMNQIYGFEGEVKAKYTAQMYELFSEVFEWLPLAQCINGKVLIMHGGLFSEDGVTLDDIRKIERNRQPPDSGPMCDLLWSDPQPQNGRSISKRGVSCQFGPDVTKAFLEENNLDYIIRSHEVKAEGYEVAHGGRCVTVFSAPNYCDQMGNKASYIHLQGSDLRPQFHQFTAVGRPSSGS

Experiment [10] can be described thus: NIH3T3 cell viability loss – ATP luminescence, mouse fibroblasts, counter-screen, dose response (AID 2010).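 Note: cells exposed to compound for about 90 hours before reading.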 Type of experiment: functional, cell-based.
The test system of the next experiment is HEK293. As to the kind of experiment: EBV LMP1 TES2 canonical NF-kB signalling blockers – cell-based, HEK293, luciferase, cherry-pick, dose response (AID 588343). Conditions: Homo sapiens. Type of experiment: functional.
Experiment [11] addresses Latent membrane protein 1 (Human herpesvirus 4 (strain B95-8), UniProt P03230). As to the kind of experiment: LMP1 TES1 pathway selectivity over dsRED control – imaging, HEK293T, dual-color eGFP/dsRED, cherry-picks, selectivity assay for LMP1 NF-kB inhibitor project, dose response (AID 588398). Type of experiment: functional, cell-based.
In the next experiment the test system is INS1. Nature of the experiment: INS-1E survival protection against cytokine death – cell-based, luminescence, retest, dose response (AID 449756).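 Note: cell death triggered by IL-1 beta plus TNF-alpha plus IFN-gamma mixture; protective hits raise ATP signal compared with cytokine alone wells.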 The note with it: Rattus norvegicus. Type of experiment: functional.
Experiment [12] addresses Photoreceptor-specific nuclear receptor (Homo sapiens, UniProt Q9Y5X4). Type of experiment: functional, cell-based.

Serine/threonine-protein phosphatase PP1-alpha catalytic subunit, sequence (P62136 whole entry): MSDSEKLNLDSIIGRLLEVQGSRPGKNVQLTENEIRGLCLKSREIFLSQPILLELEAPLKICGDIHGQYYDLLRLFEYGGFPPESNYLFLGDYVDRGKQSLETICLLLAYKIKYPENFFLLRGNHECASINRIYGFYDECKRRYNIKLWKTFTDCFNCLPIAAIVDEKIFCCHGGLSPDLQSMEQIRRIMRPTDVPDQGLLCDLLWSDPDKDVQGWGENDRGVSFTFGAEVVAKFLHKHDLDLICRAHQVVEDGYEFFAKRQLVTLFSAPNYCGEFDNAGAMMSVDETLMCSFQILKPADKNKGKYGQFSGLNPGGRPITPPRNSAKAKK
Latent membrane protein 1, sequence (P03230 whole entry): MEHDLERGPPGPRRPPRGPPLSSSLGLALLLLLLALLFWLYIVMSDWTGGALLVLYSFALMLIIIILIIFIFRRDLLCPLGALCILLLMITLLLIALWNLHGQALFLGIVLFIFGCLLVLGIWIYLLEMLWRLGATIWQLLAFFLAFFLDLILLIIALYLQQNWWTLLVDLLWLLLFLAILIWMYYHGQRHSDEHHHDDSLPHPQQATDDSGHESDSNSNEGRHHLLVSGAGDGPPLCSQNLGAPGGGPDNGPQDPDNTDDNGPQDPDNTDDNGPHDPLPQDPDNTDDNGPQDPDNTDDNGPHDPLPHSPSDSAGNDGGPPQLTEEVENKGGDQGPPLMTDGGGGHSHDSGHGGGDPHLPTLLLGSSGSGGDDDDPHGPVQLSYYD
Photoreceptor-specific nuclear receptor, sequence (Q9Y5X4 whole entry): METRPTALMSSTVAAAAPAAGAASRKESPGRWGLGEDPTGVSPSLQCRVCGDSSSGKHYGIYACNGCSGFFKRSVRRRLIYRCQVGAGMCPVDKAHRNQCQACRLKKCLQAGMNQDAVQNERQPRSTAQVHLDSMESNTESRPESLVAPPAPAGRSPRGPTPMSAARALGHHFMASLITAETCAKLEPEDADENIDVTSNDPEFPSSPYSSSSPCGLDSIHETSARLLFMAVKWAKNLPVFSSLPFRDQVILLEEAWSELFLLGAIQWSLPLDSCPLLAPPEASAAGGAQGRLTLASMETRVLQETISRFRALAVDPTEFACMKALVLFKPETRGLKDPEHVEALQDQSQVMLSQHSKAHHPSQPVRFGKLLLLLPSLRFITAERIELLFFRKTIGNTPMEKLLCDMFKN
DNA dC->dU-editing enzyme APOBEC-3G, sequence (Q9HC16 whole entry): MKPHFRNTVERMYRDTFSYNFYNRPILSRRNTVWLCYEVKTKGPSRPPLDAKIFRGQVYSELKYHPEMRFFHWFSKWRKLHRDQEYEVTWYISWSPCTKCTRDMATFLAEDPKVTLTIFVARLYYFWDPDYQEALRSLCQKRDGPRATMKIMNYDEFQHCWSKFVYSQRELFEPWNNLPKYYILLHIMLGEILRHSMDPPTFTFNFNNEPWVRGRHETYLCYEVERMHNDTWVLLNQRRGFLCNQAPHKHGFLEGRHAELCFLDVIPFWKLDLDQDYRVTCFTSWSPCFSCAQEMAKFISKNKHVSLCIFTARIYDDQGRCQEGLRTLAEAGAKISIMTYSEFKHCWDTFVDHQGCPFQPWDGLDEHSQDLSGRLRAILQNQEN
DNA dC->dU-editing enzyme APOBEC-3A, sequence (P31941 whole entry): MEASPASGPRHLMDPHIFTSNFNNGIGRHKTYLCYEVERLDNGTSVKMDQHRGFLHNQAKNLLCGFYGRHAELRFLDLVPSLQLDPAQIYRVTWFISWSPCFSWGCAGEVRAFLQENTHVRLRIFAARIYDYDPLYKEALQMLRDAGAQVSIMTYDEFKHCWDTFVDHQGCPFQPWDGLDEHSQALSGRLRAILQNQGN

For `CCOC(=O)CC(c1ccc(N)cc1)n1c(C)ccc1C` (centres undefined), the IC50 in [1] and in experiment [2] was > 99 µM (inactive) throughout.
Broadly, the CC50 is the concentration that lowers cell viability or growth by half. For `CC1CCN(C(=O)CSc2nc(O)c3ccccc3n2)CC1`, the CC50 in [3] and in experiment [4] was > 100 µM (active) in each case.
For orientation: EC50 means the concentration needed to bring the measured effect to its halfway point. Usually AC50 stands for the concentration giving half of the maximal activity seen. As for `COc1cnc(-c2ccccn2)nc1Sc1ccccc1Cl`, the EC50 in experiment [5] was > 150 µM (inconclusive); in experiment [7], > 38 µM (not active); in [8], 2.36 µM (active); in experiment [10], > 60 µM (not active). For the same compound, the results for the IC50 in experiment [6], in experiment [9] and in [12] were 7.8 µM (active), 59.1 µM (not active) and 4.25 µM (active), respectively. Further, the AC50 with HEK293 is 112 µM (active); in [11], 15.4 µM (active); with INS1 it was 7.29 µM (active).
